Structures can show the parent of a compound that is named as a salt. Where two headings read alike, the source gives them in different places. Values belong to the compound of their own block, whether it stands above or below them.
What was measured:
[1] = tested on: isolated intact guinea pig trachea; test: Bronchodilatation: spontaneous tone of isolated intact guinea pig trachea; settings: bath concentration 1 μg ml^-1
Procedure: The compound of Example 4 (as methanesulphonate) (at a bath concentration of 1 μg ml^-1) caused a 50% reduction in the spontaneous tone of an isolated intact guinea pig trachea, as assessed by the method of Coleman R. A. and Farmer J. B. (1971), J. Pharm.

[2] = Anti-hypertensive activity in conscious cats, oral; assay type: in vivo, cat; settings: 19 μmol Kg^-1 (Example 1 base), 16 μmol Kg^-1 (Example 4 methanesulphonate); for changes in heart rate: at least 2 hours
[3] = Blood pressure in conscious spontaneously hypertensive rats, intravenous and oral; assay type: in vivo, spontaneously hypertensive rat
β1 -receptors [4] = biological target: T1, β1 -receptors (Felis catus, UniProt Q9TST6); test: β-Adrenoceptor antagonist activity: inhibition of isoprenaline-induced tachycardia in ganglion blocked anaesthetised cats; assay type: in vivo, cat; settings: for ID50 (inhibition of isoprenaline-induced tachycardia by 50%) / ED50: ganglion blocked anaesthetised cats, intravenous; for ED50: cat, iv, read-out: ID50 (inhibition of isoprenaline-induced tachycardia by 50%)
T1 construct: from tissue; host or cells: living anaesthetised cat (in vivo)
Description: (§1) The doses required to inhibit isoprenaline-induced tachycardia by 50% (ID50) were obtained after intravenous administration.

β1 -adrenoceptor = test: Overall hypotension and β1-adrenoceptor antagonism from the above data; settings: in vivo
Procedure: (§2) Compounds were dosed following dissolution in distilled water or in polyethylene glycol and dilution with 0.9% saline. The compounds were then administered intravenously. The blood pressure and heart rate were monitored directly, from a polythene cannula placed in the carotid artery. The doses required to lower blood pressure by 40 mm Hg, when administered intravenously, were obtained from a dose response graph.
as §1
(§3) Furthermore they have minimal intrinsic sympathomimetic activity as shown by the absence of a tachycardia in spontaneously beating guinea pig right atria. The compound of Example 1 produced a maximal increase of approximately 10% of the maximal isoprenaline induced tachycardia in an anaesthetised ganglion blocked cat.

[5] = Vasodilator activity: increase in blood flow in autoperfused anaesthetised rat hindquarters; assay type: in vivo; settings: for ED (50% increase): Rattus norvegicus, read-out: dose required to increase hindquarters blood flow by 50%
Description: The doses required to increase hindquarters blood flow by 50% were obtained.

[6] = Anti-hypertensive activity: fall in blood pressure in anaesthetised rats, intravenous; assay type: in vivo, rat; settings: from dose response graph; for ED (40 mm Hg): Rattus norvegicus, iv, read-out: dose required to lower blood pressure by 40 mm Hg
Procedure: as §2

[7] = Observation of toxic effects in conscious spontaneously hypertensive rats, oral; assay type: in vivo, spontaneously hypertensive rat; settings: doses up to a maximum of 102 μmol Kg^-1
β1 -receptors [8] = biological target: T1, β1 -receptors; test: β-Adrenoceptor antagonist activity: inhibition of isoprenaline-induced tachycardia in ganglion blocked anaesthetised cats; assay type: in vivo, cat; settings: prizidilol at doses giving a similar effect
[9] = Hypotension and aortic blood flow in anaesthetised cats; assay type: in vivo, cat; settings: 4 μmol Kg^-1 (base) and 7 μmol Kg^-1 (hydrochloride)
[10] = Intrinsic sympathomimetic activity (tachycardia) in anaesthetised ganglion blocked cat; assay type: in vivo
Description: as §3

[11] = administration intra-arterially
[12] = iv, administration intravenously

T1 sequence (Q9TST6 whole entry): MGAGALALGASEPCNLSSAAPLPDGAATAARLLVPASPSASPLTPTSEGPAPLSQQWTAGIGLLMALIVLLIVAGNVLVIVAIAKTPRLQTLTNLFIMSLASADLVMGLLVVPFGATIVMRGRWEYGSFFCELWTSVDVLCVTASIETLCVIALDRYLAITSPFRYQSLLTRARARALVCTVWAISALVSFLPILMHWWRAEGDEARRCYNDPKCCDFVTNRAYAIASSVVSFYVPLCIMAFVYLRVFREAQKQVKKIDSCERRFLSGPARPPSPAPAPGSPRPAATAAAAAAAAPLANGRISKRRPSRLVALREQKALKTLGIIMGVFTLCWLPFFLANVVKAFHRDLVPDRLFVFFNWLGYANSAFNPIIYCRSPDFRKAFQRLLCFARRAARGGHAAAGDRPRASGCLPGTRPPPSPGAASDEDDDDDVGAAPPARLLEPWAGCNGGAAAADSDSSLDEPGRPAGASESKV

Compound: CC1CC(=O)NN=C1c1ccc(NC(=O)CCNCC(O)COc2ccc(CCOCC3CC3)cc2)cc1 (centres unmarked) [Example 4, 6-[4-[3-[2-Hydroxy-3-[4-(2-(cyclopropylmethoxy)ethyl)phenoxy]propylamino]propionamido]phenyl]-5-methyl-4,5-dihydro-3(2H)-pyridazinone]
inhibition of the reduction in tracheal tone by propanolol [1]: not inhibited by propanolol
reduction in spontaneous tone of trachea [1]: 50%
period of blood pressure reduction with minimal heart rate change [2]: at least 2 hours
reductions in blood pressure [2]: reductions in blood pressure
changes in heart rate [2]: minimal changes in heart rate
duration of prolonged, significant reductions in blood pressure (up to and including, post dose) ([3]; intravenous, 3 to 13 μmol Kg^-1): 5 h
fall in blood pressure ([3]; intravenous, three dose levels from 3 to 13 μmol Kg^-1): significant fails in blood pressure
duration of prolonged, significant reductions in blood pressure (up to and including, post dose) ([3]; oral, 25 to 102 μmol Kg^-1): 5 h
hypotensive effect ([3]; oral, three doses from 25 to 102 μmol Kg^-1): significant hypotensive effect
ID50 (inhibition of isoprenaline-induced tachycardia by 50%) (β1 -receptors [4]; as methanesulphonate): 1.4 µmol/kg
prolonged hypotension and β1-adrenoceptor antagonism over the same dose range (β1 -adrenoceptor): cause prolonged hypotension and β1 -adrenoceptor antagonism over the same dose range
ED (50% increase) [5, 11]: 1.7 µmol/kg
duration of vasodilatation ([5]; autoperfused anaesthetised rat hindquarters): prolonged duration of vasodilatation
dose required to lower blood pressure by 40 mm Hg ([6]; as methanesulphonate): 2.8 µmol/kg
toxic effects [7]: no toxic effects were observed

Compound: CC1CC(=O)NN=C1c1ccc(NC(=O)CCNCC(O)COc2ccc(CCOCC3CC3)cc2)cc1 (centres unmarked) [Example 1 as hydrochloride, 6-[4-[3-[2-Hydroxy-3-[4-(2-(cyclopropylmethoxy)ethyl)phenoxy]propylamino]propionamido]phenyl]-5-methyl-4,5-dihydro-3(2H)-pyridazinone]
ID50 (inhibition of isoprenaline-induced tachycardia by 50%) (β1 -receptors [4]; listed as 1, as hydrochloride): 4.3 µmol/kg
prolonged hypotension and β1-adrenoceptor antagonism over the same dose range (β1 -adrenoceptor): cause prolonged hypotension and β1 -adrenoceptor antagonism over the same dose range
dose required to increase hindquarters blood flow by 50% ([5]; administration intravenously, listed as 1, as hydrochloride): 4.0 µmol/kg
dose required to lower blood pressure by 40 mm Hg ([6]; listed as 1, as hydrochloride): 4.0 µmol/kg

Compound: CC1CC(=O)NN=C1c1ccc(NC(=O)CCNC[C@H](O)COc2ccc(CCOCC3CC3)cc2)cc1 (single isomer, unassigned; (-)) [Example 11, (-)-6-[4-[3-[2-(-)-Hydroxy-3-[4-(2-(cyclopropylmethoxy)ethyl)phenoxy]propylamino]propionamido]phenyl]-5-methyl-4,5-dihydro-3(2H)-pyridazione[(-) (-)isomer]]
ED50 (β1 -receptors [4]): 1.6 µmol/kg
prolonged hypotension and β1-adrenoceptor antagonism over the same dose range (β1 -adrenoceptor): cause prolonged hypotension and β1 -adrenoceptor antagonism over the same dose range
ED (50% increase) [5, 11]: 1.1 µmol/kg
ED (40 mm Hg) [6]: 2.1 µmol/kg

Compound: CC1CC(=O)NN=C1c1ccc(NC(=O)CCNCC(O)COc2ccc(CCOCC3CC3)cc2)cc1 (centres unmarked) [Example 1, 6-[4-[3-[2-Hydroxy-3-[4-(2-(cyclopropylmethoxy)ethyl)phenoxy]propylamino]propionamido]phenyl]-5-methyl-4,5-dihydro-3(2H)-pyridazinone]
period of blood pressure reduction with minimal heart rate change [2]: at least 2 hours
reductions in blood pressure [2]: reductions in blood pressure
changes in heart rate [2]: minimal changes in heart rate
duration of inhibition of isoprenaline-induced tachycardia (β1 -receptors [8]): prolonged duration of inhibition
ID50 (inhibition of isoprenaline-induced tachycardia by 50%) (β1 -receptors [4]; as base): 1.9 µmol/kg
selectivity for β1-receptors (β1 -receptors [4]; in vivo): evidence that this compound has selectivity for β1 -receptors
changes in aortic blood flow [9]: minimal changes in aortic blood flow
hypotension [9]: significant dose-dependent hypotension
prolonged hypotension and β1-adrenoceptor antagonism over the same dose range (β1 -adrenoceptor): cause prolonged hypotension and β1 -adrenoceptor antagonism over the same dose range
dose required to increase hindquarters blood flow by 50% ([5]; administration intravenously, as base): 11.5 µmol/kg
dose required to lower blood pressure by 40 mm Hg ([6]; as base): 8.0 µmol/kg
maximal increase, of the maximal isoprenaline induced tachycardia [10]: approximately 10%

Compound: CCCc1cc(CCOCC2CC2)ccc1OCC(O)CNCCC(=O)Nc1ccc(C2=NNC(=O)CC2C)cc1 (centres unmarked) [Example 2, 6-[4-[3-[2-Hydroxy-3-[2-n-propyl-4-(2-(cyclopropylmethoxy)ethyl)phenoxy]propylamino]propionamido]phenyl]-5-methyl-4,5-dihydro-3(2H)-pyridazinone]
ED50 (β1 -receptors [4]): 8.63 µmol/kg
ED (50% increase) [5, 12]: 1.43 µmol/kg
ED (40 mm Hg) [6]: 3.15 µmol/kg

Further lines, with some results ahead:

duration of inhibition of isoprenaline-induced tachycardia (β1 -receptors [8]): short duration of inhibition
Compound: CC(C)(C)NCC(O)COc1ccccc1-c1ccc(NN)nn1 (centres unmarked) [Prizidilol, reference compound]
ED (50% increase) [5, 11]: 10 µmol/kg
ED (40 mm Hg) [6]: 14 µmol/kg

ED50 (β1 -receptors [4]): 7.84 µmol/kg
Compound: Cc1cc(CCOCC2CC2)ccc1OCC(O)CNCCC(=O)Nc1ccc(C2=NNC(=O)CC2C)cc1 (centres unmarked) [Example 3, 6-[4-[3-[2-Hydroxy-3-[2-methyl-4-(2-(cyclopropylmethoxy)ethyl)phenoxy]propylamino]propionamido]phenyl]-5-methyl-4,5-dihydro-3(2H)-pyridazinone]
ED (50% increase) [5, 12]: 1.95 µmol/kg
ED (40 mm Hg) [6]: 2.95 µmol/kg

— patent publication US4652563A, “Vasodilators and β-adrenoceptor antagonists” (Smith Kline & French Laboratories Ltd., priority 1984, dated 1987)
